Test results from publication PMC5681660, “Reduced hepatitis B and D viral entry using clinically applied drugs as novel inhibitors of the bile acid transporter NTCP” (Scientific Reports, 2017).
Structures can show the parent of a compound that is named as a salt.

Target: T1, human NTCP (Homo sapiens, UniProt Q14973)
T1 sequence (Q14973 1-349): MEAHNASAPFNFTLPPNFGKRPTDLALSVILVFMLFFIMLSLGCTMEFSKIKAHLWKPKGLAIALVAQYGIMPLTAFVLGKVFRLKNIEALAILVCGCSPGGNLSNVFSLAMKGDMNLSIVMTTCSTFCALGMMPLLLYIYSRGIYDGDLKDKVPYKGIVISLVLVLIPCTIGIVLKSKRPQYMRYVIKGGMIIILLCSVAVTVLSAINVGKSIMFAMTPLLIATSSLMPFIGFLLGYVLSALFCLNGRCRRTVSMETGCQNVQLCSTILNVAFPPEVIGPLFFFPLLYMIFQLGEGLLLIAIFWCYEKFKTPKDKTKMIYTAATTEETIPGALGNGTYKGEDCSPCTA
Assay: Screening taurocholate uptake assay (96-well, [14C]taurocholate, 10 µM drug)
Settings: for B-score functional assay: screening taurocholate uptake, 10 µM drug

[1] = ranking over the functional and the binding screening assay
[2] = combined ranking of functional and binding screening assays

| Structure (SMILES) | Ranking score [1] | B-score functional assay | Ranking score [2] | B-score functional assay (B-score) | Ranking score (ranking score beside the functional and binding assay B-scores of the screen) |
| --- | --- | --- | --- | --- | --- |
| Cc1c(NC(C)C)c(=O)n(-c2ccccc2)n1C.Cl [Isopyrin hydrochloride] | 209.153 | -3.076 | – | – | – |
| CC1=C(CC(=O)O)c2cc(F)ccc2/C1=C\c1ccc([S+](C)[O-])cc1 (stereo not drawn) [Sulindac] | 109.727 | -1.878 | – | – | – |
| CCC(=O)OCC(=O)[C@@]1(OC(=O)CC)[C@H](C)C[C@H]2[C@H]3[C@H]([C@@H](O)C[C@@]21C)[C@@]1(C)C=CC(=O)C=C1C[C@H]3Cl [Alclometasone dipropionate] | 175.417 | -2.188 | – | – | – |
| Cl.O.O.O=C1CC[C@@]2(O)[C@H]3Cc4ccc(O)c5c4[C@@]2(CCN3CC2CC2)[C@H]1O5 [Naltrexone hydrochloride dihydrate] | – | – | – | – | 809.543 |
| CN(C)C/C=C(\c1ccc(Br)cc1)c1cccnc1.Cl.Cl.O [Zimelidine dihydrochloride monohydrate] | 266.786 | -1.216 | – | – | – |
| CN(Cc1cc(Br)cc(Br)c1N)C1CCCCC1 [Bromhexine hydrochloride] | 149.492 | -0.767 | – | – | – |
| C[C@@H](O[C@H]1OCCN(Cc2n[nH]c(=O)[nH]2)[C@H]1c1ccc(F)cc1)c1cc(C(F)(F)F)cc(C(F)(F)F)c1 [Aprepitant] | 111.812 | -3.7 | – | – | – |
| C[C@]12CC[C@@H]3c4ccc(OC(=O)N(CCCl)CCCl)cc4CC[C@H]3[C@@H]1CC[C@@H]2O [Estramustine] | 134.744 | -1.527 | – | – | – |
| CS(=O)(=O)O.Cc1ccc2c(c1)c1c3n2CCNC3CCC1 (stereo not drawn) [Pirlindole mesylate] | – | 0.129 | 496.839 | – | – |
| CC(=O)N[C@@H](CC(C)C)C(=O)O [N-Acetyl-L-leucine] | – | -1.591 | 463.866 | – | – |
| NC(=O)OCC(O)COc1ccc(Cl)cc1 (stereo not drawn) [Chlorphensin carbamate] | – | – | 1211.24 | 3.271 | – |
| CCOC(=O)C1=C(C)NC(C)=C(C(=O)OC)C1c1cccc(Cl)c1Cl (stereo not drawn) [Felodipine] | – | 1.073 | 465.188 | – | – |
| CCc1cccc2c3c([nH]c12)C(CC)(CC(=O)O)OCC3 (stereo not drawn) [Etodolac] | 112.748 | -0.274 | – | – | – |
| CN1C(C(=O)Nc2ccccn2)=C(O)c2sccc2S1(=O)=O [Tenoxicam] | – | 0.141 | 641.502 | – | – |
| Clc1ccc(COC(Cn2ccnc2)c2ccc(Cl)cc2Cl)c(Cl)c1 (stereo not drawn) [Miconazole] | 240.998 | -2.763 | – | – | – |
| O=C(CCCCCCC(=O)Nc1ccccc1)NO [Vorinostat] | – | -0.284 | 583.003 | – | – |

Further lines, with some results ahead:

| Ranking score [1] | B-score functional assay | Ranking score [2] | B-score functional assay (B-score) | Structure (SMILES) | Ranking score (ranking score beside the functional and binding assay B-scores of the screen) |
| --- | --- | --- | --- | --- | --- |
| – | -0.641 | 627.796 | – | OCCN1CCN(CCCN2c3ccccc3C=Cc3ccccc32)CC1 [Opipramol dihydrochloride] | – |
| – | -0.025 | 536.517 | – | CC[N+](C)(CC)CCOC(=O)C1c2ccccc2Oc2ccccc21 [Methantheline bromide] | – |
| – | 0.164 | 563.848 | – | Nc1ccc(S(=O)(=O)NC(=O)c2ccccc2)cc1 [Sulfabenzamide] | – |
| – | – | 1210.75 | 1.579 | CCCCOc1cc(C(=O)NCCN(CC)CC)c2ccccc2n1 [Dibucaine] | – |
| 223.052 | 0.036 | – | – | CCOc1ccc2ccccc2c1C(=O)N[C@@H]1C(=O)N2[C@@H]1SC(C)(C)[C@@H]2C(=O)O [Nafcillin sodium salt monohydrate] | – |
| – | -0.689 | 571.731 | – | O=C(CCCN1CCC2(CC1)C(=O)NCN2c1ccccc1)c1ccc(F)cc1 [Spiperone] | – |
| 43.359 | -8.959 | – | – | O=C(Nc1cccc2c(=O)cc(-c3nnn[nH]3)oc12)c1ccc(OCCCCc2ccccc2)cc1 [Pranlukast] | – |
